{
  "source": "patent US20250268863A1",
  "about": "“DOSING REGIMENS FOR TREATMENT OF PATIENTS WITH LOCALLY ADVANCED SQUAMOUS CELL CARCINOMA” (priority 2019, published 2025)",
  "key": {"[1]": {"test_system": "locally advanced squamous cell cancer of the head and neck (LA-SCCHN)", "assay": "Dose escalation of Debio 1143 with concurrent chemoradiotherapy (MTD determination)", "type": "in vivo", "description": "Additionally, for each Debio 1143 dose level (DL) and overall, according to variant 1 of this example: • (a) the safety profile of Debio 1143 in combination with concurrent CRT was assessed; • (b) the antitumour activity of the recommended dose (RD) of Debio 1143 in combination with concurrent CRT in the study population was evaluated. • In a variant 2 of this example, the following items (c) to (f) were explored in addition to items (a) and (b) of variant 1: • (c) the pharmacokinetics (PK) of Debio 1143 and cisplatin when administered in combination with radiation therapy, and explore the potential for drug-drug interactions of Debio 1143 in combination with cisplatin was explored; • (d) the pharmacodynamic (PDy) biomarkers of Debio 1143 activity in combination with concurrent CRT were explored; • (e) the PK/PDy, PK/efficacy, PK/safety, PDy/efficacy and PDy/safety relationships and pharmacogenetic (PGx) factors that may affect Debio 1143 PK were explored; and • (f) the pharmacogenomic and tumour PGx factors were explored.\nDuring the screening phase, subjects were evaluated and staged using the American Joint Committee on Cancer (“AJCC”) […] staging system.\nEscalating doses of Debio 1143 were added to CRT. […] The starting dose of Debio 1143 in this combination study was 100 mg/day over 14 days every 21 days. […]"}, "[2]": {"test_system": "locally advanced squamous cell cancer of the head and neck (LA-SCCHN)", "assay": "Double-blind randomised placebo-controlled Phase II study of Debio 1143 + CRT: efficacy", "type": "in vivo, human", "conditions": "for Locoregional control rate at 18 months after CRT: 200 mg/day days 1-14 q3w + cisplatin CRT, N = 48 (ITT); for complete response / partial response: of 48 patients", "description": "96 patients were randomized 95 were treated.\nThe primary endpoint to the study was locoregional control rate (LRC) at 18 months after CRT. Key secondary endpoints included PFS, duration of LRC, overall survival, […] and CR at 3 and 6 months after CRT completion.\nThe main inclusion criteria were as follows: • Previously untreated, inoperable (unresectable) Stage III, Stage IVA, or Stage IVB as per AJCC TNM staging version 7.0 (2010) • LA-SCCHN of the oral cavity, hypopharynx, larynx, or oropharynx (HPV/p16 both negative or positive) • Heavy smoking history (>10 pack-years) • Negative HIV/HBV/HCV • Performance Status by Eastern Cooperative Oncology Group (ECOG)=0 or 1.\nThe main exclusion criteria were as follows: • Non-compensated liver cirrhosis (Child-Pugh class C) • >75 years • Non-cisplatin eligible.\nA multicentre, phase 2, double-blind, randomised, placebo-controlled study was conducted to evaluate the safety and efficacy of oral Debio 1143 at 200 mg/day on Days 1-14 of 21-Day cycles combined with concomitant cisplatin-based chemoradiotherapy in patients with LA-SCCHN. Male and female patients were eligible if they were aged 18 to 75 years with histologically confirmed LA-SCCHN and fulfilled the following criteria: previously untreated, stage III, IVa or IVb (according to the American Joint Committee on Cancer 2010 staging system [AJCC TNM v7.0 2010]) of one or more of the following sites: oral cavity, oropharynx, hypopharynx and larynx and with T 2-4, N0-3, M0 measurable disease according to Response Evaluation Criteria in Solid Tumours (RECIST), version 1⋅1. Patients were to have a smoking history of more than 10 pack-years, and no medical history of hepatitis B or hepatitis C. For patients with oropharyngeal cancer, tumour HPV-status was determined by the presence of p16 using immunohistochemistry. Other inclusion criteria included: Eastern Cooperative Oncology Group (ECOG) performance status of 0 or 1, no clinically significant cardiac disease and no clinically significant hearing impairment that would have contraindicated the use of chemotherapy with HD-cisplatin.\nExclusion criteria included nasopharyngeal, paranasal sinuses, nasal cavity tumours or thyroid cancers, squamous cell cancer involving cervical neck nodes but from unknown primary site, unknown lymph node status, metastatic disease, any prior or current treatment for invasive head and neck cancer of any kind (including, but not limited to, prior tyrosine kinase inhibitors, prior neoadjuvant therapy, prior surgical resection, or use of any investigational agent), weight loss of >10% during the previous month, non-compensated liver cirrhosis, gastro-intestinal disorders that could affect drug absorption, concurrent treatment with any other systemic anticancer therapy or concomitant treatment with any drug on the prohibited medication list, history of uncontrolled or symptomatic angina, arrhythmias, or congestive heart failure, history of another malignancy within the last 5 years with the exception of completely resected basal or squamous cell skin cancer or successfully treated in-situ carcinoma, history of non-invasive lesion or in-situ carcinoma, including in the head and neck region that was successfully treated with surgery, peripheral neuropathy (grade 2 or above), clinical hearing loss, history of allergic reactions to appropriate antiemetics, human immunodeficiency virus infection. The protocol was approved by the institutional review boards or ethics committees of all participating centres. The study was carried out in accordance with the protocol, the principles expressed in the Declaration of Helsinki, and applicable regulatory requirements. All patients provided written informed consent in advance of study-specific procedures. […]"}, "[3]": {"test_system": "locally advanced squamous cell cancer of the head and neck (LA-SCCHN)", "assay": "Double-blind randomised placebo-controlled Phase II study of Debio 1143 + CRT: safety", "procedure": "A double-blind randomized placebo-controlled Phase II study was conducted. […] All subjects received 100 mg/m^2 cisplatin on day 2 of each three-week cycle (up to three cycles) concomitantly with radiotherapy (RT). The subjects also received standard fractionation RT with 2 Gy/daily on five days/week for seven weeks up to 70 Gy delivered to the gross-tumor volume (GTV) and 50 Gy to eligible lymph nodes loco-regionally.\nConventional fractionated intensity modulated radiotherapy (IMRT) was delivered to the gross tumour volume (GTV, [primary tumour and involved nodes]), to a total dose of 70 Gy in 2 Gy daily fractions, for 5 days per week over 7 weeks. Primary and neck nodal areas with no tumour involvement (elective/prophylactic irradiation areas) received a total dose of 50 Gy. In accordance with the European Society of Medical Oncology guidelines, patients received prophylactic treatment with granisetron or palonosetron, dexamethasone and aprepitant, prior to and after cisplatin to prevent renal damage and emesis.\nMedical history and demographics were collected at screening. Physical examination was conducted at screening, on day 1 of each cycle, at the end of study visit, at the safety follow-up visit and at each subsequent efficacy follow-up visit. Adverse events and co-medication were monitored throughout the study from signature of informed consent (28 days prior to the first dose) until 30 days after the last dose of study drug. Adverse events were graded according to Common Terminology Criteria for Adverse Events (NCI CTCAE) version 4⋅03. All information pertaining to unusual manifestations or adverse events was collected by the investigator at each visit. […] Late toxicities were defined in the protocol and monitored throughout the efficacy follow-up period until the end of study visit."}, "[4]": {"conditions": "as of 21 Jul. 2020, median follow-up 33 months"}, "[5]": {"conditions": "first tumour evaluation, approximately 11 weeks after chemoradiotherapy"}, "[6]": {"conditions": "six months post chemoradiotherapy"}, "[7]": {"conditions": "two-year follow-up, data cut off 15 Jul. 2019"}},
  "note": "Entries after “also recorded” stand apart in the source; their conditions may differ.",
  "data": [
    {"compound": "CN[C@@H](C)C(=O)N[C@H]1CN(C(=O)CC(C)C)CC[C@H]2CC[C@@H](C(=O)NC(c3ccccc3)c3ccccc3)N2C1=O", "note": "[Debio 1143, (5S,8S,10aR)—N-benzhydryl-5-[[(2S)-2-(methylamino)propanoyl]amino]-3-(3-methylbutanoyl)-6-oxo-1,2,4,5,8,9,10,10a-octahydropyrrolo[1,2-a][1,5]diazocine-8-carboxamide]", "values": [
      {"measurement": "efficacy versus CRT+placebo", "setting": "[1]; high risk LA-SCCHN subjects", "value": "significantly improves efficacy"},
      {"measurement": "maximum tolerated dose (MTD)", "setting": "[1]; oral daily for 14 days every three weeks, with cisplatin 100 mg/m^2 and RT 70 Gy", "value": 200, "unit": "mg"},
      {"measurement": "Locoregional control rate at 18 months after CRT", "setting": "[2]", "value": 54, "unit": "%"},
      {"measurement": "Locoregional control rate at 18 months after CRT", "setting": "[2]; listed as Debio 1143 + CRT", "value": 54.2, "unit": "%"},
      {"measurement": "Odds Ratio for locoregional control at 18 months (Debio 1143 vs Placebo)", "setting": "[2]; N = 48 per arm", "value": 2.69},
      {"measurement": "3 years OS rate", "setting": "[2]; as of 21 Jul. 2020", "value": 66, "unit": "%"},
      {"measurement": "Kaplan-Meier estimate of locoregional control at 36 months after the end of chemoradiotherapy", "setting": "[2]; as of 21 Jul. 2020", "value": 78, "unit": "%"},
      {"measurement": "hazard ratio, duration of locoregional control vs placebo", "setting": "[2]; as of 21 Jul. 2020", "value": 0.47},
      {"measurement": "median duration of locoregional control", "setting": "[2]; as of 21 Jul. 2020", "value": "not reached"},
      {"measurement": "probability of PFS at 36 months", "setting": "[2]; as of 21 Jul. 2020", "value": 72, "unit": "%"},
      {"measurement": "reduction of the risk of disease progression or death vs placebo", "setting": "[2]; as of 21 Jul. 2020", "value": 66, "unit": "%"},
      {"measurement": "hazard ratio, PFS vs placebo", "setting": "[2]; as of 21 Jul. 2020, 36 months of follow up", "value": 0.34},
      {"measurement": "hazard ratio, overall survival vs placebo", "setting": "[2]; [4]", "value": 0.49},
      {"measurement": "median OS", "setting": "[2]; [4]", "value": "not reached"},
      {"measurement": "reduction of the risk of mortality vs placebo", "setting": "[2]; [4]", "value": 51, "unit": "%"},
      {"measurement": "median overall survival", "setting": "[2]; by 24 months", "value": "not yet reached"},
      {"measurement": "Kaplan-Meier estimate of locoregional control at 18 months after the end of chemoradiotherapy", "setting": "[2]; data cut off 15 Jul. 2019", "value": 78, "unit": "%"},
      {"measurement": "hazard ratio, duration of locoregional control vs placebo", "setting": "[2]; data cut off 15 Jul. 2019", "value": 0.53},
      {"measurement": "median duration of locoregional control", "setting": "[2]; data cut off 15 Jul. 2019", "value": "not reached"},
      {"measurement": "median progression-free survival", "setting": "[2]; data cut off 15 Jul. 2019", "value": "not reached"},
      {"measurement": "proportion of patients progression-free at 24 months", "setting": "[2]; data cut off 15 Jul. 2019", "value": 72, "unit": "%"},
      {"measurement": "complete response", "setting": "[2]; [5]", "value": 35, "unit": "%"},
      {"measurement": "partial response", "setting": "[2]; [5]", "value": 27, "unit": "%"},
      {"measurement": "complete response", "setting": "[2]; [6]", "value": 52, "unit": "%"},
      {"measurement": "partial response", "setting": "[2]; [6]", "value": 15, "unit": "%"},
      {"measurement": "hazard ratio, overall survival vs placebo", "setting": "[2]; [7]", "value": 0.65},
      {"measurement": "hazard ratio, progression-free survival vs placebo", "setting": "[2]; [7]", "value": 0.37},
      {"measurement": "patients who died", "setting": "[3]; data cut off 15 Jul. 2019", "value": 14, "unit": "patients"},
      {"measurement": "grade 3 bilirubin increases", "setting": "[3]; in vivo", "value": "no grade 3 bilirubin increases"},
      {"measurement": "grade 4 transaminase increases", "setting": "[3]; in vivo", "value": "no grade 4 transaminase increases"},
      {"measurement": "patients with alanine aminotransferase increase leading to dose reduction", "setting": "[3]; most common event leading to dose reduction", "value": 10, "unit": "%"},
      {"measurement": "patients who discontinued Debio 1143", "setting": "[3]; of 48 patients", "value": 15, "unit": "%"},
      {"measurement": "patients with adverse events of at least grade 3", "setting": "[3]; of 48 patients", "value": 85, "unit": "%"},
      {"measurement": "patients with grade 1-2 tinnitus", "setting": "[3]; of 48 patients", "value": 31, "unit": "%"},
      {"measurement": "patients with grade 4 events", "setting": "[3]; of 48 patients", "value": 19, "unit": "%"},
      {"measurement": "patients with grade 5 events", "setting": "[3]; of 48 patients", "value": "none"},
      {"measurement": "patients with serious treatment-emergent adverse events", "setting": "[3]; of 48 patients", "value": 63, "unit": "%"},
      {"measurement": "patients with treatment-emergent adverse events leading to dose reductions of Debio 1143", "setting": "[3]; of 48 patients", "value": 19, "unit": "%"},
      {"measurement": "late toxicities", "setting": "[3]; onset >60 days after CRT end, vs placebo", "value": "very similar and not increased; also recorded: late toxicity was balanced"},
      {"measurement": "frequency or severity of cisplatin-associated adverse events", "setting": "[3]; renal insufficiency, febrile neutropenia, thrombocytopenia, peripheral sensory neuropathy, severe vomiting, exception grade 1-2 tinnitus", "value": "did not increase the frequency or severity"},
      {"measurement": "overall safety and tolerability of Debio 1143 added to chemoradiotherapy", "setting": "[3]; vs placebo + CRT", "value": "well tolerated; also recorded: remained unchanged"},
      {"measurement": "grade 3 increases in aspartate aminotransferase and alanine aminotransferase", "setting": "[3]; vs placebo group", "value": "higher"},
      {"measurement": "incidence of grade 3 anaemia", "setting": "[3]; vs placebo group", "value": "higher incidence"},
      {"measurement": "incidence of grade 4 neutropenia", "setting": "[3]; vs placebo group", "value": "higher incidence"}
    ]}
  ]
}
